Reference: patent US20090286834A1, “Pyridine Analogues VI” (AstraZeneca AB, priority 2006, published 2009)

Biological target: T1, P2Y12 receptor (Homo sapiens, UniProt Q9H244)
T1 construct: expressed in transfected cells; host or cells: CHO cells (membranes)
Test: Functional inhibition of 2-Me-S-ADP induced P2Y12 signalling (35S-GTPγS, membranes from P2Y12 transfected CHO-cells)
Type: biochemical
Conditions: EC80 concentration of agonist 2-methyl-thio-adenosine diphosphate, 30° C. for 45 min
Protocol: Functional inhibition of the P2Y12 receptor can be measured by in vitro assays using cell membranes from P2Y12 transfected CHO-cells, the methodology is indicated below.
Functional inhibition of 2-Me-S-ADP induced P2Y12 signalling: 5 μg of membranes were diluted in 200 μl of 200 mM NaCl, 1 mM MgCl2, 50 mM HEPES (pH 7.4), 0.01% BSA, 30 μg/ml saponin and 10 μM GDP. To this was added an EC80 concentration of agonist (2-methyl-thio-adenosine diphosphate), the required concentration of test compound and 0.1 μCi ^35S-GTPγS. The reaction was allowed to proceed at 30° C. for 45 min. Samples were then transferred on to GF/B filters using a cell harvester and washed is with wash buffer (50 mM Tris (pH 7.4), 5 mM MgCl2, 50 mM NaCl). Filters were then covered with scintilant and counted for the amount of ^35S-GTPγS retained by the filter. Maximum activity was that determined in the presence of the agonist and minimum activity in the absence of the agonist following subtraction of the value determined for non-specific activity. The effect of compounds at various concentrations was plotted according to the equation
y=A+((B−A)/(1+((C/x)̂D)))
and IC50 estimated where A is the bottom plateau of the curve i.e. the final minimum y value B is the top of the plateau of the curve i.e. the final maximum y value C is the x value at the middle of the curve. […]

T1 sequence (Q9H244 whole entry): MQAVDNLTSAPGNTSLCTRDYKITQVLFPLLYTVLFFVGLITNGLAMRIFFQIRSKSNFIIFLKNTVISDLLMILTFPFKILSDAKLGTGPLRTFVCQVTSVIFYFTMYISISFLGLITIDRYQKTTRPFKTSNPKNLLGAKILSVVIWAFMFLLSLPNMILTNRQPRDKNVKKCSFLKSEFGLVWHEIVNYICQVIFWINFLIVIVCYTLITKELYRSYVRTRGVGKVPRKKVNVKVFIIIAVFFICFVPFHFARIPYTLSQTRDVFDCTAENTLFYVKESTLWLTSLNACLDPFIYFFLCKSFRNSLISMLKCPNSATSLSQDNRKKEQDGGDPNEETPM

- IC50: 810 nM
SMILES: CCOC(=O)c1cc(C#N)c(NC2CCC(C(=O)NS(=O)(=O)c3ccc(Cl)s3)C2)nc1C(F)(F)F (stereo not shown) [Example 3, Ethyl 6-{[3-({[(5-chloro-2-thienyl)sulfonyl]amino}carbonyl)cyclopentyl]amino}-5-cyano-2-(trifluoromethyl)nicotinate]
